One data set has as its system placental DPP3. Also on record: method as in PMID 9711218. Conditions: placental DPP3, H-Arg-Arg-βNA substrate; cited from earlier work.
Data set [1] deals with T1, hDPP3 (Homo sapiens, UniProt Q9NY33).
T1 construct: His6 (cleaved yes); made in house; host or cells: E. coli BL21-CodonPlus (DE3) RIL
T1 sequence (Q9NY33 1-726): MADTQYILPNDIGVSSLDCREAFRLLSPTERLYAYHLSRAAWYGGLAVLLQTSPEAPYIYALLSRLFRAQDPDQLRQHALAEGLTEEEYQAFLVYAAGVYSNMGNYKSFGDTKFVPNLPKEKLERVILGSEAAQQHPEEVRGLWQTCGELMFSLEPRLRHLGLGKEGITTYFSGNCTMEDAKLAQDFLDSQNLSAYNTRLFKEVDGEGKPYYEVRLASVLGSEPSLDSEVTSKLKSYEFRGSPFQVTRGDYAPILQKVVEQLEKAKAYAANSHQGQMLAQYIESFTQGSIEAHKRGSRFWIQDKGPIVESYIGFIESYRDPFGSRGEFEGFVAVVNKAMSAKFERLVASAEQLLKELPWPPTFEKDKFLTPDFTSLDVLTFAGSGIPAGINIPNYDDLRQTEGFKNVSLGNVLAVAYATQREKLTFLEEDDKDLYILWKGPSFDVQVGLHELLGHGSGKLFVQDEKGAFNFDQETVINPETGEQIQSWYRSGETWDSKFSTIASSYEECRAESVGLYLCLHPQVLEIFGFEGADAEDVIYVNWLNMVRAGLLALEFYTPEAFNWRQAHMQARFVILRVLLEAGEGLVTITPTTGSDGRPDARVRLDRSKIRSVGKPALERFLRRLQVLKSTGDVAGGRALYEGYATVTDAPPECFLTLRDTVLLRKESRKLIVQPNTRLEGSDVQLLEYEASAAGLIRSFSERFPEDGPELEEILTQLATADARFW
The data set is described as follows: Fluorescence-based competitive enzyme inhibition assay (degradation of H-Arg-Arg-βNA substrate). It is filed as biochemical. The conditions noted are these: for IC50: hDPP3, H-Arg-Arg-βNA substrate, 37 °C, pH 8.0.

A further data set has as its system Mammalian DPP3. Further details: method as in PMID 7931295, PMID 9425109. The conditions noted are these: cited from earlier work.
The target of data set [2] is T2, hDPP3 (inactive variant E451A) (Homo sapiens, UniProt Q9NY33, E451A).
T2 construct: His6 (cleaved yes); made in house; host or cells: E. coli BL21-CodonPlus (DE3) RIL
T2 sequence (Q9NY33 1-726 E451A): T1 sequence (Q9NY33 1-726) with E451A
The data set is described as follows: Isothermal titration calorimetry (ITC). Format: binding. Conditions: mean of three independent measurements; for Kd: hDPP3 E451A, 298 K. For orientation: Isothermal titration calorimetry measures the heat released or taken up as one component is titrated into another.

Data set [3] concerns the target T1, hDPP3. The data set is described as follows: Time-dependent inhibition of hDPP3 by tynorphin and HER. Format: biochemical. The conditions noted are these: inhibitor at 5 times IC50, room temperature, 0-24 h.
Data set [4] deals with DPP3 in mouse brain homogenate. Kind of data set: Ex vivo DPP3 inhibition in mouse brain homogenate. Format: biochemical. Conditions: Figure SI1.
For data set [5], the target named is T1, hDPP3. Kind of data set: Thermal shift assay (Thermofluor). Format: binding. The conditions noted are these: 10 µM hDPP3, 50 µM HER. Background: DSF heats the sample and reads unfolding from a dye or from intrinsic fluorescence.

Where a chain is given by its changes, count along the chain named. Read-outs that look alike come from different tables or passages of the source.

In general, IC50 refers to the concentration that gives 50% inhibition. Usually melting point stands for the temperature, or range, at which the solid turns liquid. By Kd is commonly meant the constant that tells how readily two partners part at equilibrium. Low readings indicate tighter binding, high ones weaker binding.

Regarding `CC1C(=O)c2cc(O)c3c(c2C(O)C1O)C(=O)c1cccc(O)c1-3` (stereo not shown) [B, fluostatins A and B], in the data set with placental DPP3, the IC50 was 74 µM.

Regarding `CC(C)[C@H](N)C(=O)N[C@@H](C(C)C)[C@H](O)C[C@@H](Cc1ccccc1)C(=O)N1CCCC[C@H]1C(=O)N[C@@H](Cc1c[nH]c2ccccc12)C(=O)O` [37 a], the melting point was 160 to 162 °C. This molecule also registered an IC50 on hDPP3 [1] of 34.4 µM.

Regarding `CC(C)[C@H](NC(=O)[C@@H](N)C(C)(C)C)[C@H](O)C[C@@H](Cc1ccccc1)C(=O)N1CCCC[C@H]1C(=O)N[C@@H](Cc1c[nH]c2ccccc12)C(=O)O` [37 b], the melting point is 164 to 166 °C.

Take `O=S(=O)(F)Cc1ccccc1` [PMSF, phenylmethanesulfonylfluoride]: in the data set with Mammalian DPP3, the “inhibition of mammalian DPP3” value was “significantly inhibited”.

The molecule `Cc1ccc(C[C@H](C[C@@H](O)[C@@H](NC(=O)[C@@H](N)C(C)C)C(C)C)C(=O)N2CCC[C@H]2C(=O)N[C@@H](Cc2c[nH]c3ccccc23)C(=O)O)cc1` showed a melting point of 160 to 162 °C.

At hDPP3 [1], `CC(C)[C@H](N)C(=O)N[C@@H](C(C)C)[C@@H](O)C[C@@H](Cc1ccccc1)C(=O)N1CCC[C@H]1C(=O)N[C@@H](Cc1c[nH]c2ccccc12)C(=O)O` [SHE] showed an IC50 of 98.5 µM. In data set [2], the Kd is 23 µM, the “-TΔS” value is -8.1 kcal/mol and the ΔH is given as 2.3 kcal/mol.

For `COC(=O)[C@H](Cc1c[nH]c2ccccc12)NC(=O)[C@@H]1CCCN1C(=O)[C@H](Cc1ccc(O)cc1)C[C@@H](O)[C@@H](NC(=O)[C@@H](N)C(C)C)C(C)C` [compound 32], the melting point was in the range of 148 to 150 °C. For the same molecule, the IC50 at hDPP3 [1] came out at 17.9 µM.

Turning to tynorphin [reference compound], on hDPP3 [3], the “time-dependent inhibition of hDPP3 (stability against the peptidase)” value was “lost its efficacy within the first hour”.

Turning to `Cc1cc(=O)c2c(cc(O)c3c4c(O)cccc4c(=O)c32)c1=O` [fluostatins A], the IC50 in the data set with placental DPP3 is 1.44 µM.

Consider `CC(C)[C@H](N)C(=O)N[C@@H](C(C)C)[C@H](O)C[C@@H](Cc1ccc(F)cc1)C(=O)N1CCC[C@H]1C(=O)N[C@@H](Cc1c[nH]c2ccccc12)C(=O)O`, for which the melting point was 168 to 170 °C.

`O=c1oc(Cl)c(Cl)c2ccccc12` [DCI, 3,4‐dichloroisocoumarin]: the “inhibition of mammalian DPP3” value in the data set on Mammalian DPP3 (covalently binding serine peptidase inhibitors) is on record as “significantly inhibited”.

Regarding `CC(C)C(N)C(=O)NC(C(C)C)C(O)CC(Cc1ccccc1)C(=O)N1CCCC1C(=O)NC(Cc1c[nH]c2ccccc12)C(=O)O` (stereo not shown) [HER], the melting point is 148 to 152 °C. Besides, at hDPP3 [3], the “time-dependent inhibition of hDPP3 (stability against the peptidase)” value was “efficiently inhibit the activity over a period of 24 h”. Besides, the “potency relative to SHE (IC50 ratio)” value at hDPP3 [1] (HER versus SHE) is recorded as 7 fold. Also, at hDPP3 [1], the IC50 was 13.8 µM. Moreover, in data set [4], the “inhibition of DPP3 in mouse brain homogenate” value is listed as “efficiently inhibit DPP3 in mouse brain homogenate without losing much of its potency”. On hDPP3 [5] (t=0 h of incubation), the “Melting temperature (Tm) of hDPP3+HER” value worked out at 57.5 °C. Moreover, the “Melting temperature (Tm) of hDPP3+HER” value at hDPP3 [5] (t=24 h of incubation) was found to be 57 °C. Besides, in data set [2], the affinity, expressed as Kd, was 11 µM; the “-TΔS” value was -16.0 kcal/mol; the ΔH is 10.7 kcal/mol.

Turning to `Cc1ccc(S(=O)(=O)N[C@@H](Cc2ccccc2)C(=O)CCl)cc1` [TPCK, tosyl‐phenylalanyl chloromethyl ketone], in the data set on Mammalian DPP3, the “inhibition of mammalian DPP3” value is “significantly inhibited”.

`CC(C)[C@H](N)C(=O)N[C@@H](C(C)C)[C@H](O)C[C@@H](Cc1ccc(O)cc1)C(=O)N1CCC[C@H]1C(=O)N[C@@H](Cc1c[nH]c2ccccc12)C(=O)O` came in with a melting point of 172 to 174 °C.

These data come from article PMC8518066, “Efficient Entropy‐Driven Inhibition of Dipeptidyl Peptidase III by Hydroxyethylene Transition‐State Peptidomimetics” (Chemistry (Weinheim an Der Bergstrasse, Germany), 2021).
